Test results as given in ChEMBL document CHEMBL5634128, “Development of chalcone-like derivatives and their biological and mechanistic investigations as novel influenza nuclear export inhibitors” (Eur J Med Chem, 2023).
Calls of active or inactive are those of the source. The calls are words filed in the database; no cut-off is given here.

Columns and labels:
Influenza A virus [1] = assay: Anti-influenza activity against Influenza A virus A/Goose/Guangdong/SH7/2013 (H5N1) infected in chicken embryo fibroblast assessed as inhibition of virus-induced cytopathic effect; type: functional
[2] = Cytotoxicity against chicken embryo fibroblast cells assessed as reduction in cell growth at 50 uM by CCK-8 assay relative to control; type: toxicity, cell-based, Gallus gallus; details: chicken embryo fibroblast cells, read-out: Activity
Influenza A virus [3] = assay: Anti-influenza activity against Influenza A virus A/PR/8/34 infected in chicken embryo fibroblast assessed as reduction in viral growth; type: functional, organism-based; details: A/PR/8/34, Fibroblast
Influenza A virus [4] = assay: Anti-influenza activity against Influenza A virus A/Goose/Guangdong/SH7/2013 (H5N1) infected in chicken embryo fibroblast at MOI 1 assessed as distribution of NP in nucleus at 10 uM measured after 10 hr post infection by DAPI staining based assay; type: functional, organism-based
Influenza A virus [5] = assay: Anti-influenza activity against Influenza A virus H5N1 infected in chicken embryo fibroblast assessed as reduction in viral growth; type: functional, organism-based
Influenza A virus [6] = assay: Anti-influenza activity against Influenza A virus H5N8 infected in chicken embryo fibroblast assessed as reduction in viral growth; type: functional, organism-based
[7] = Cytotoxicity against chicken embryo fibroblast cells assessed as reduction in cell growth by CCK-8; type: toxicity, cell-based, Gallus gallus
Influenza A virus [8] = assay: Anti-influenza activity against Influenza A virus A/Brisbane/10/2007 infected in chicken embryo fibroblast assessed as reduction in viral growth; type: functional, organism-based; details: A/Brisbane/10/2007, Fibroblast
Influenza A virus [9] = assay: Anti-influenza activity against Influenza A virus pdm09 infected in chicken embryo fibroblast assessed as reduction in viral growth; type: functional, organism-based
Influenza A virus [10] = assay: Anti-influenza activity against Influenza A virus B/Yamagata infected in chicken embryo fibroblast assessed as reduction in viral growth; type: functional, organism-based
Influenza A virus [11] = assay: Anti-influenza activity against Influenza A virus B/Victoria infected in chicken embryo fibroblast assessed as reduction in viral growth; type: functional, organism-based
Influenza A virus [12] = assay: Anti-influenza activity against Influenza A virus A/Goose/Guangdong/SH7/2013 (H5N1) infected in chicken embryo fibroblast at MOI 1 assessed as reduction in NP expression in nucleus at 10 uM measured after 10 hr post infection by Western blot analysis; type: functional, organism-based
Influenza A virus [13] = assay: Anti-influenza activity against Influenza A virus A/Goose/Guangdong/SH7/2013 (H5N1) infected in chicken embryo fibroblast at MOI 1 assessed as reduction in NP expression in cytoplasm at 10 uM measured after 10 hr post infection by Western blot analysis; type: functional, organism-based
Influenza A virus [14] = assay: Anti-influenza activity against Influenza A virus A/Goose/Guangdong/SH7/2013 (H5N1) infected in chicken embryo fibroblast at MOI 1 assessed as decrease in ratio of cytoplasmic to nuclear NP level at 10 uM measured after 10 hr post infection by Western blot analysis; type: functional, organism-based
Nucleoprotein = Nucleoprotein (Influenza A virus (strain A/Wilson-Smith/1933 H1N1), UniProt P15682); assay: Binding affinity to influenza A virus Nucleoprotein assessed as dissociation constant by SPR analysis
[15] = Binding affinity to influenza A virus M1 assessed as dissociation constant by SPR analysis
[16] = Binding affinity to influenza A virus NS2 assessed as dissociation constant by SPR analysis
[17] = biological target: Exportin-1 (Homo sapiens) (UniProt O14980); assay: Inhibition of CRM1-mediated nuclear export in human A549 cells assessed as distribution of GFP-tagged AID in cytoplasm at 20 uM administered for 12 hrs and measured after 24 hrs by fluorescence microscopy analysis; type: cell-based
[18] = biological target: Exportin-1 (Homo sapiens) (UniProt O14980); assay: Inhibition of CRM1-mediated nuclear export in human A549 cells assessed as distribution of GFP-tagged AID in nucleus at 20 uM administered for 12 hrs and measured after 24 hrs by fluorescence microscopy analysis; type: cell-based; details: time 36.0 hrs
[19] = biological target: Single-stranded DNA cytosine deaminase (Homo sapiens) (UniProt Q9GZX7); assay: Induction of GFP-tagged AID degradation in human A549 cells at 20 uM; type: cell-based
Chain of Single-stranded DNA cytosine deaminase (Homo sapiens) (Q9GZX7 whole entry): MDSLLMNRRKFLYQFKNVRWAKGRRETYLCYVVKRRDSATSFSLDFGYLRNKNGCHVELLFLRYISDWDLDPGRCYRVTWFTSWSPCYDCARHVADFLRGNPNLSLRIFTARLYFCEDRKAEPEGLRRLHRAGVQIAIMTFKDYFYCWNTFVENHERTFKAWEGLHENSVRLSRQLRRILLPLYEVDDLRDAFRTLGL

Chain of Exportin-1 (Homo sapiens) (O14980 whole entry): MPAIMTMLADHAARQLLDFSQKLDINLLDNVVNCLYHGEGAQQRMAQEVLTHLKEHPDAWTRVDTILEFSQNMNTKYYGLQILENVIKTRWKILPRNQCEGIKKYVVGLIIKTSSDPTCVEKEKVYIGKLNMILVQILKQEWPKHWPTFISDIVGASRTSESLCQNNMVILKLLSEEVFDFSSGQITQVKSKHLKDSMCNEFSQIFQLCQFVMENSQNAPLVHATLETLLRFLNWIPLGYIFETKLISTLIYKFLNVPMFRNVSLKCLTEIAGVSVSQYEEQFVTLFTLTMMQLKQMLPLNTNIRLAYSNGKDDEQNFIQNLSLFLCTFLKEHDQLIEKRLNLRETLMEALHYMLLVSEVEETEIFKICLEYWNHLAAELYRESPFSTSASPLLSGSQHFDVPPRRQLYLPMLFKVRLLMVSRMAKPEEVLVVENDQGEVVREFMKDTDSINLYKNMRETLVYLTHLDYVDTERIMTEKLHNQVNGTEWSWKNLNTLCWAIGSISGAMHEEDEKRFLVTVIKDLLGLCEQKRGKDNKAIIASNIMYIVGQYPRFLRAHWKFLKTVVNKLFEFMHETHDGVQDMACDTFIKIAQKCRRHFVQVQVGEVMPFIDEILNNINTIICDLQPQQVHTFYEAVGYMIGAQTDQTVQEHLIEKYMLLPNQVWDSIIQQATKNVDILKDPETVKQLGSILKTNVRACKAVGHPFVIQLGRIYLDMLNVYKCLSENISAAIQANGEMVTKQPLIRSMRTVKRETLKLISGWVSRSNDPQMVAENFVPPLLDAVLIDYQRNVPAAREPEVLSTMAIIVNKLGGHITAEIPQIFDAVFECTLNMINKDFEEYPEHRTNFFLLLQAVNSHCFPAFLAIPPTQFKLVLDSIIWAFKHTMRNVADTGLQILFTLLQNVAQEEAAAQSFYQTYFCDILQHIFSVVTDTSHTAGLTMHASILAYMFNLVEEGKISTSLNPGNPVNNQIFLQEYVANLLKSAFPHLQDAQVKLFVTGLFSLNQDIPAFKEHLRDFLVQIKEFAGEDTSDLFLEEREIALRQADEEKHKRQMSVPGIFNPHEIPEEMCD
Chain of Nucleoprotein (P15682 whole entry): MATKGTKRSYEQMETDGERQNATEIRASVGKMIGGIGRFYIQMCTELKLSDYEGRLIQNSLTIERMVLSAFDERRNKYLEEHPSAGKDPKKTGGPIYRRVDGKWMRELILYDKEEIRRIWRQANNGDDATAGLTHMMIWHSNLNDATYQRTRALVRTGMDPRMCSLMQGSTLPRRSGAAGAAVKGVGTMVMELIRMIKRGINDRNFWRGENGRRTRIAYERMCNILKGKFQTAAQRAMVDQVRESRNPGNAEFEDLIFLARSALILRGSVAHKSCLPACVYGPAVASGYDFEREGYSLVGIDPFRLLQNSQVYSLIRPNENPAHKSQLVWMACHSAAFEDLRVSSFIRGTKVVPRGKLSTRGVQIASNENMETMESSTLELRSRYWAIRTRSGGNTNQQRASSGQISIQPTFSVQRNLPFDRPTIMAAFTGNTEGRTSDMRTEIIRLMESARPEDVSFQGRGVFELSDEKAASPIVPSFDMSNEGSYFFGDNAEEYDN

| SMILES | inhibition (INH) (Influenza A virus [1]) | percent cell viability relative to control at 50 µM [2] | also measured |
| --- | --- | --- | --- |
| COc1cccc(OC)c1/C=C/C(=O)/C=C/c1ccc(N2CCCC2)cc1 | 62.89% | 133% |  |
| COc1cccc(OC)c1/C=C/C(=O)/C=C/c1ccccn1 | 70.92% | 110% |  |
| COc1cccc(OC)c1C(=O)N/N=C/c1ccc(C)cc1 | 47.74% | 61.2% |  |
| COc1cccc(OC)c1/C=C/C(=O)/C=C/c1ccc(-c2ccccc2)c(C)c1 | 58.93% | 113% |  |
| CCOc1ccc(/C=C/C(=O)/C=C/c2c(OC)cccc2OC)cc1 | 51.33% | 117% | EC50 (Influenza A virus [3]): 7.31 µM; Activity (Influenza A virus [4]): Active; EC50 (Influenza A virus [5]): 14.9 µM; EC50 (Influenza A virus [6]): 9.6 µM; CC50 [7]: > 100 µM; EC50 (Influenza A virus [8]): 3.69 µM; EC50 (Influenza A virus [9]): 4.56 µM; EC50 (Influenza A virus [10]): 4.82 µM; EC50 (Influenza A virus [11]): 3.13 µM; Activity (Influenza A virus [12]): Active; Activity (Influenza A virus [13]): Active; Activity (Influenza A virus [14]): Active; Kd (Nucleoprotein): 0.239 µM; Kd [15]: Not Active; Kd [16]: Not Active; inhibition [17]: inactive; inhibition [18]: inactive; Activity [19]: Active |
| Cc1onc(-c2ccccc2)c1C(=O)N1CCN(c2ccc([N+](=O)[O-])cc2Cl)CC1 [NUCLEOZIN] |  |  | Kd (Nucleoprotein): 0.014 µM; Kd [15]: Not Active; Kd [16]: Not Active |
| COc1cccc(OC)c1/C=C1\CCC/C(=C\c2ccccn2)C1=O | 25.98% | 85% |  |
| COc1cccc(OC)c1/C=C/C(=O)/C=C/c1ccc(-c2nccs2)cc1 | 60.3% | 106% |  |
| COc1cccc(OC)c1/C=C/C(=O)/C=C/c1ccc([N+](=O)[O-])cc1 | 70.62% | 99.5% |  |
| COc1cccc(OC)c1/C=C/C(=O)/C=C/c1ccc(-c2cccnc2)cc1 | 25.98% | 111% |  |
| COc1cccc(OC)c1/C=C/C(=O)/C=C/c1ccccc1N1CCOCC1 | 73.17% | 63.3% |  |
| COc1cccc(OC)c1/C=C/C(=O)/C=C/c1ccc(-n2cccn2)cc1 | 37.85% | 104% |  |
| COc1cccc(OC)c1C(=O)C1OC1c1ccc(C(C)(C)C)cc1 (centres undefined) | 28.99% | 85.8% |  |
| COc1cccc(OC)c1/C=C/C(=O)/C=C/c1ccc(C(C)(C)C)cc1 | 72.89% | 86% |  |
| COc1cccc(OC)c1/C=C/C(=O)/C=C/c1ccc(N2CCN(C)CC2)cc1 | 57.74% | 94.7% |  |
| COc1cccc(OC)c1/C=C/C(=O)/C=C/c1cccc(N2CCOCC2)c1 | 71.53% | 69.5% |  |
| COc1cccc(OC)c1/C=C1\CCC/C(=C\c2ccc(C)cc2)C1=O | 46.7% | 67.2% |  |
| COc1cccc(OC)c1/C=C/C(=O)/C=C/c1ccc(C)cc1 | 70.3% | 97.3% |  |
| COc1cccc(OC)c1C(=O)CCc1ccccn1 | 27.71% | 74.6% |  |
| COc1cccc(OC)c1C(=O)C1OC1c1ccc(C)cc1 (centres undefined) | 35.03% | 62.5% |  |
| COc1cccc(OC)c1/C=C/C(=O)/C=C/c1ccc(N2CCCCC2)cc1 | 60.7% | 110% |  |
| COc1cccc(OC)c1/C=C/C(=O)/C=C/c1ccc(-c2ccccc2)cc1C | 23.04% | 110% |  |
| COc1cccc(OC)c1C(=O)/C=C/c1nc(C)c(C)nc1C |  | 39.1% | EC50 (Influenza A virus [3]): 3.51 µM; EC50 (Influenza A virus [5]): 7.34 µM; EC50 (Influenza A virus [6]): 10.8 µM; CC50 [7]: < 50 µM; EC50 (Influenza A virus [8]): 3.69 µM; EC50 (Influenza A virus [9]): 1.34 µM; EC50 (Influenza A virus [10]): 2.47 µM; EC50 (Influenza A virus [11]): 3.87 µM |
| CCC(=C/[C@H](C)C/C=C/C(C)=C/[C@@H](C)C(=O)[C@@H](C)[C@H](O)[C@@H](C)C/C(C)=C/C(=O)O)/C=C/[C@@H]1OC(=O)C=C[C@@H]1C |  |  | inhibition [18]: Active |
| COc1cccc(OC)c1/C=C1\CCC/C(=C\c2ccc(C(C)(C)C)cc2)C1=O | 57.57% | 61.1% |  |

| SMILES | inhibition (INH) (Influenza A virus [1]) | percent cell viability relative to control at 50 µM [2] | also measured |
| --- | --- | --- | --- |
| COc1ccc(/C=C/C(=O)/C=C/c2c(OC)cccc2OC)cc1-c1ccccc1 | 35.03% | 85% |  |
| COc1cccc(OC)c1/C=C1\CCC/C(=C\c2ccc([N+](=O)[O-])cc2)C1=O | 48.07% | 66.9% |  |
| COc1cccc(OC)c1C(=O)CCc1ccc(C)cc1 | 29.55% | 65% |  |
| COc1cccc(OC)c1/C=C/C(=O)/C=C/c1c(C)cc(-c2ccccc2)cc1C | 27.71% | 108% |  |
| COc1cccc(OC)c1/C=C/C(=O)/C=C/c1ccc(-n2ccnc2C)cc1 | 28.99% | 61% |  |
| COc1cccc(OC)c1C(=O)N/N=C/c1ccccn1 | 13.78% | 81.9% |  |
| COc1cc(/C=C/C(=O)/C=C/c2c(OC)cccc2OC)ccc1-c1ccccc1 | 54.77% | 126% |  |
| COc1cccc(OC)c1/C=C/C(=O)/C=C/c1ccc(N(C)C)cc1 | 75.34% | 110% | EC50 (Influenza A virus [5]): 20.9 µM; EC50 (Influenza A virus [6]): 16 µM; CC50 [7]: > 100 µM |
| COc1cccc(OC)c1C(=O)N/N=C/c1nc(C)c(C)nc1C | 62.26% | 85% |  |
| CCN(CC)c1ccc(/C=C/C(=O)/C=C/c2c(OC)cccc2OC)cc1 | 71.5% | 117% | EC50 (Influenza A virus [5]): 18.1 µM; EC50 (Influenza A virus [6]): 13.6 µM; CC50 [7]: > 100 µM |
| COc1cccc(OC)c1C(=O)C1OC1c1nc(C)c(C)nc1C (centres undefined) | 5.53% | 64.6% |  |
| COc1cccc(OC)c1C(=O)CCc1nc(C)c(C)nc1C | 18.14% | 71% |  |
| COc1cccc(OC)c1/C=C/C(=O)/C=C/c1ccc(-c2ccccc2)cc1 | 51.69% | 104% |  |
| COc1cccc(OC)c1C(=O)N/N=C/c1ccc(C(C)(C)C)cc1 | 38.93% | 57.7% |  |
| COc1cccc(OC)c1C(=O)C1OC1c1ccc([N+](=O)[O-])cc1 (centres undefined) | 13.17% | 61% |  |
| COc1cccc(OC)c1C(=O)N/N=C/c1ccc([N+](=O)[O-])cc1 | 50.3% | 71.7% |  |
| COc1cccc(OC)c1C(=O)CCc1ccc([N+](=O)[O-])cc1 | 2.26% | 61% |  |
| COc1cccc(OC)c1/C=C/C(=O)/C=C/c1nc(C)c(C)nc1C | 71.53% | 83.8% |  |
| COc1cccc(OC)c1C(=O)CCc1ccc(C(C)(C)C)cc1 | 13.17% | 96.4% |  |
| CCCOc1ccc(/C=C/C(=O)/C=C/c2c(OC)cccc2OC)cc1 | 41.16% | 149% |  |
| COc1cccc(OC)c1C(=O)C1OC1c1ccccn1 (centres undefined) | 27.71% | 71.8% |  |
| COc1cccc(OC)c1/C=C1\CCC/C(=C\c2nc(C)c(C)nc2C)C1=O | 57.06% | 72.4% |  |
| COc1cccc(OC)c1/C=C/C(=O)/C=C/c1ccc(-n2ccnc2)cc1 | 18.14% | 106% |  |
| COc1ccc(/C=C/C(=O)/C=C/c2c(OC)cccc2OC)cc1 | 26.89% | 108% |  |
